Consider twelve compounds from patent US20240158446A1, “CYCLIC COMPOUND HAVING SELECTIVE INHIBITORY ACTION ON KRAS OVER HRAS AND NRAS” (CHUGAI SEIYAKU KABUSHIKI KAISHA, priority 2021, published 2024).

The term Kd denotes the free concentration of one partner at which half of the binding sites on the other are occupied at equilibrium, for simple one-to-one binding.

Assay [1] concerns the target GDP-bound HRAS wild-type protein (Homo sapiens, UniProt P01112). The experiment in a line: Binding to HRAS by surface plasmon resonance (SPR), Single Cycle Kinetics. Conditions: SPR; GDP-bound HRAS wild-type protein vs GDP-bound KRAS wild-type protein; KD ratio class.
In assay [2] the target is GDP-bound NRAS wild-type protein (Homo sapiens, UniProt P01111). The experiment in a line: Binding to NRAS by surface plasmon resonance (SPR), Single Cycle Kinetics. Conditions: SPR; GDP-bound NRAS wild-type protein vs GDP-bound KRAS wild-type protein; KD ratio class.
Chain of GDP-bound NRAS wild-type protein (P01111 whole entry): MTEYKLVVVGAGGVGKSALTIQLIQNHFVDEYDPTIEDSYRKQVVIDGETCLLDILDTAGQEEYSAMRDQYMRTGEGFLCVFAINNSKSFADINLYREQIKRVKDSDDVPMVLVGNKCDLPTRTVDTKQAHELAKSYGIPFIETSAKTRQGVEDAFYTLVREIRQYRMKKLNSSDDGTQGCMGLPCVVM
Assay [3] concerns the target GDP-bound KRAS wild-type protein (Homo sapiens, UniProt P01116). The experiment in a line: Binding to KRAS by surface plasmon resonance (SPR), Single Cycle Kinetics. Conditions: SPR, Single Cycle Kinetics, 1:1 binding model; GDP-bound KRAS wild-type protein; read-out: KRAS KD.

Molecules are shown by their SMILES.

Chain of GDP-bound HRAS wild-type protein (P01112 whole entry): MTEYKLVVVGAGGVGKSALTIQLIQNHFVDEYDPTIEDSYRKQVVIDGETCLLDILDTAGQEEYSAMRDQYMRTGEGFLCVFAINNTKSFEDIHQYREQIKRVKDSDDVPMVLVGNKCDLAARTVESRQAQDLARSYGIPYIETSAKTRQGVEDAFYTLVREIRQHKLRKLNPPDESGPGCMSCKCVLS
Chain of GDP-bound KRAS wild-type protein (P01116 whole entry): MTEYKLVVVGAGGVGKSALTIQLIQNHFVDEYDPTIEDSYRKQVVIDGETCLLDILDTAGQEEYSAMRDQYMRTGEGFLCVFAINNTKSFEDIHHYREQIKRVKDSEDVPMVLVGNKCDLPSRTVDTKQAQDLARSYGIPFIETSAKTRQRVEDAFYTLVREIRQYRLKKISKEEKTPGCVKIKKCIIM

On to `CCO[C@@H]1C[C@H]2C(=O)NC3(CCC3)C(=O)N(C)[C@@H](C3CCCC3)C(=O)N(C)[C@H](C(=O)N(C)C)CC(=O)N(C)[C@@H](CC)C(=O)N[C@@H]([C@@H](C)CC)C(=O)N(C)CC(=O)N(C)[C@H]3CC/C=C(/C)CN(C3=O)[C@@H](Cc3ccc(C(F)(F)F)cc3)C(=O)N(C)CC(=O)N[C@@H](CCc3cc(F)c(C(F)(F)F)c(F)c3)C(=O)N2C1` [PP1334], for which, in assay [1], the “HRAS/KRAS (ratio of KD value for HRAS to KD value for KRAS)” value is “B (a compound having 3 or more and less than 10 is denoted as B)”. Moreover, the “NRAS/KRAS (ratio of KD value for NRAS to KD value for KRAS)” value in assay [2] is “B (a compound having 3 or more and less than 10 is denoted as B)”. Further, the Kd in assay [3] was 11 nM.
On to `CCO[C@@H]1C[C@H]2C(=O)NC3(CCC3)C(=O)N(C)[C@@H](C3CCCC3)C(=O)N(C)[C@H](C(=O)N3CCOCC3)CC(=O)N(C)[C@@H](CC)C(=O)N[C@@H]([C@@H](C)CC)C(=O)N(C)CC(=O)N(C)[C@H]3CC/C=C(/C)CN(C3=O)[C@@H](Cc3ccc(C(F)(F)F)cc3)C(=O)N(C)CC(=O)N[C@@H](CCc3cc(F)c(C(F)(F)F)c(F)c3)C(=O)N2C1` [PP1335], for which the “HRAS/KRAS (ratio of KD value for HRAS to KD value for KRAS)” value in assay [1] is “B (a compound having 3 or more and less than 10 is denoted as B)”. In assay [2], the “NRAS/KRAS (ratio of KD value for NRAS to KD value for KRAS)” value was “B (a compound having 3 or more and less than 10 is denoted as B)”. In assay [3], the Kd was 18 nM.
Regarding `CCO[C@@H]1C[C@H]2C(=O)NC3(CCCC3)C(=O)N(C)[C@@H](C3CCCC3)C(=O)N(C)[C@H](C(=O)N(C)C)CC(=O)N(C)[C@@H](CC)C(=O)N[C@@H]([C@@H](C)CC)C(=O)N(C)CC(=O)N(C)[C@H]3C[C@H](C)C(C)CN(C3=O)[C@@H](Cc3ccc(C(F)(F)F)cc3)C(=O)N(C)CC(=O)N[C@@H](CCc3cc(F)c(C(F)(F)F)c(F)c3)C(=O)N2C1` (stereo partly drawn) [PP1347], the “HRAS/KRAS (ratio of KD value for HRAS to KD value for KRAS)” value in assay [1] is “B (a compound having 3 or more and less than 10 is denoted as B)”. Besides, in assay [2], the “NRAS/KRAS (ratio of KD value for NRAS to KD value for KRAS)” value is “B (a compound having 3 or more and less than 10 is denoted as B)”. Also, in assay [3], the Kd is 0.017 nM.
On to `CCO[C@@H]1C[C@H]2C(=O)NC3(CCCC3)C(=O)N(C)[C@@H](C3CCCC3)C(=O)N(C)[C@H](C(=O)N3CCOCC3)CC(=O)N(C)[C@@H](CC)C(=O)N[C@@H]([C@@H](C)CC)C(=O)N(C)CC(=O)N(C)[C@H]3C[C@H](C)C(C)CN(C3=O)[C@@H](Cc3ccc(C(F)(F)F)cc3)C(=O)N(C)CC(=O)N[C@@H](CCc3cc(F)c(C(F)(F)F)c(F)c3)C(=O)N2C1` (stereo partly drawn) [PP1348], for which the “HRAS/KRAS (ratio of KD value for HRAS to KD value for KRAS)” value in assay [1] is “B (a compound having 3 or more and less than 10 is denoted as B)”. Also, in assay [2], the “NRAS/KRAS (ratio of KD value for NRAS to KD value for KRAS)” value was “B (a compound having 3 or more and less than 10 is denoted as B)”. Besides, in assay [3], the Kd was found to be 0.076 nM.
As to `CC[C@H](C)[C@@H]1NC(=O)[C@H](CC)N(C)C(=O)C[C@@H](C(=O)N(C)C)N(C)C(=O)[C@H](C2CCCC2)N(C)C(=O)C2(CCCC2)NC(=O)[C@@H]2CCCN2C(=O)[C@H](CCc2cc(F)c(C(F)(F)F)c(F)c2)NC(=O)CN(C)C(=O)[C@H](Cc2ccc(C(F)(F)F)cc2)N2CC(C)[C@@H](C)C[C@@H](C2=O)N(C)C(=O)CN(C)C1=O` (stereo partly drawn) [PP1349], the “HRAS/KRAS (ratio of KD value for HRAS to KD value for KRAS)” value in assay [1] is “B (a compound having 3 or more and less than 10 is denoted as B)”. Also, the “NRAS/KRAS (ratio of KD value for NRAS to KD value for KRAS)” value in assay [2] is “C (A compound having a KD ratio of 0.1 or more and less than 3 is denoted as C)”. The Kd in assay [3] is 0.09 nM.
Regarding `CCCN(C)C(=O)[C@@H]1CC(=O)N(C)[C@@H](CC(C)C)C(=O)N[C@@H]([C@@H](C)CC)C(=O)N(C)CC(=O)N(C)[C@H]2C/C=C\CCN(C2=O)[C@@H](Cc2ccc(C(F)(F)F)cc2)C(=O)N(C)CC(=O)N[C@@H](CCc2cc(F)c(C(F)(F)F)c(F)c2)C(=O)N2C[C@H](OCC)C[C@H]2C(=O)NC2(CCC2)C(=O)N(C)[C@@H](C2CCCC2)C(=O)N1C` [PP1387, (2S,8S,12R,14S,20S,23S,27S,30S,36S,38Z)-20-cyclopentyl-8-[2-[3,5-difluoro-4-(trifluoromethyl)phenyl]ethyl]-12-ethoxy-27-isobutyl-N,4,19,22,26,32,35-heptamethyl-30-[(1S)-1-methylpropyl]-3,6,9,15,18,21,25,28,31,34,42-undecaoxo-N-propyl-2-[[4-(trifluoromethyl)phenyl]methyl]spiro[1,4,7,10,16,19,22,26,29,32,35-undecazatricyclo[34.5.1.0^10,14]dotetracont-38-ene-17,1′-cyclobutane]-23-carboxamide], the “HRAS/KRAS (ratio of KD value for HRAS to KD value for KRAS)” value in assay [1] is “B (a compound having 3 or more and less than 10 is denoted as B)”. Further, the “NRAS/KRAS (ratio of KD value for NRAS to KD value for KRAS)” value in assay [2] is “A (a compound having 10 or more and less than 20 is denoted as A)”. Further, the Kd in assay [3] turned out to be 0.098 nM.
As for `CCCN(C)C(=O)[C@@H]1CC(=O)N(C)[C@@H](CC2CC2)C(=O)N[C@@H]([C@@H](C)CC)C(=O)N(C)CC(=O)N(C)[C@H]2C/C=C\CCN(C2=O)[C@@H](Cc2ccc(C(F)(F)F)cc2)C(=O)N(C)CC(=O)N[C@@H](CCc2cc(F)c(C(F)(F)F)c(F)c2)C(=O)N2C[C@H](OCC)C[C@H]2C(=O)NC2(CCC2)C(=O)N(C)[C@@H](C2CCCC2)C(=O)N1C` [PP1388], in assay [1], the “HRAS/KRAS (ratio of KD value for HRAS to KD value for KRAS)” value is “B (a compound having 3 or more and less than 10 is denoted as B)”. For the same compound, the “NRAS/KRAS (ratio of KD value for NRAS to KD value for KRAS)” value in assay [2] was “A (a compound having 10 or more and less than 20 is denoted as A)”. In assay [3], the Kd turned out to be 0.076 nM.
With `CCC[C@H]1C(=O)N[C@@H]([C@@H](C)CC)C(=O)N(C)CC(=O)N(C)[C@H]2C/C=C\CCN(C2=O)[C@@H](Cc2ccc(C(F)(F)F)cc2)C(=O)N(C)CC(=O)N[C@@H](CCc2cc(F)c(C(F)(F)F)c(F)c2)C(=O)N2C[C@H](OCC)C[C@H]2C(=O)NC2(CCC2)C(=O)N(C)[C@@H](C2CCCC2)C(=O)N(C)[C@H](C(=O)N(C)CCC)CC(=O)N1C` [PP1389, (2S,8S,12R,14S,20S,23S,27S,30S,36S,38Z)-20-cyclopentyl-8-[2-[3,5-difluoro-4-(trifluoromethyl)phenyl]ethyl]-12-ethoxy-N,4,19,22,26,32,35-heptamethyl-30-[(1S)-1-methylpropyl]-3,6,9,15,18,21,25,28,31,34,42-undecaoxo-N,27-dipropyl-2-[[4-(trifluoromethyl)phenyl]methyl]spiro[1,4,7,10,16,19,22,26,29,32,35-undecazatricyclo[34.5.1.0^10,14]dotetracont-38-ene-17,1′-cyclobutane]-23-carboxamide], in assay [1], the “HRAS/KRAS (ratio of KD value for HRAS to KD value for KRAS)” value was “A (a compound having 10 or more and less than 20 is denoted as A)”. Moreover, the “NRAS/KRAS (ratio of KD value for NRAS to KD value for KRAS)” value in assay [2] is reported as “AA (a compound having 20 or more is denoted as AA)”. Further, the Kd in assay [3] was found to be 0.066 nM.
As to `CCCOC[C@H]1C(=O)N[C@@H]([C@@H](C)CC)C(=O)N(C)CC(=O)N(C)[C@H]2C/C=C\CCN(C2=O)[C@@H](Cc2ccc(C)cc2)C(=O)N(C)CC(=O)N[C@@H](CCc2cc(F)c(C(F)(F)F)c(F)c2)C(=O)N2C[C@H](OCC)C[C@H]2C(=O)NC2(CCCC2)C(=O)N(C)[C@@H](C2CCCC2)C(=O)N(C)[C@H](C(=O)N2CCCC2)CC(=O)N1C` [PP1401], the “HRAS/KRAS (ratio of KD value for HRAS to KD value for KRAS)” value in assay [1] is “A (a compound having 10 or more and less than 20 is denoted as A)”. Besides, the “NRAS/KRAS (ratio of KD value for NRAS to KD value for KRAS)” value in assay [2] was “A (a compound having 10 or more and less than 20 is denoted as A)”. For the same compound, the Kd in assay [3] turned out to be 0.26 nM.
Regarding `CCO[C@@H]1C[C@H]2C(=O)NC3(CCC3)C(=O)N(C)[C@@H](C3CCCC3)C(=O)N(C)[C@H](C)CC(=O)N(C)[C@@H](CC(C)C)C(=O)N[C@@H]([C@@H](C)CC)C(=O)N(C)CC(=O)N(C)[C@H]3C/C=C\CCN(C3=O)[C@@H](Cc3ccc(C)cc3)C(=O)N(C)CC(=O)N[C@@H](CCc3cc(F)c(C(F)(F)F)c(F)c3)C(=O)N2C1` [PP1417], in assay [1], the “HRAS/KRAS (ratio of KD value for HRAS to KD value for KRAS)” value is “B (a compound having 3 or more and less than 10 is denoted as B)”. In addition, the “NRAS/KRAS (ratio of KD value for NRAS to KD value for KRAS)” value in assay [2] is “B (a compound having 3 or more and less than 10 is denoted as B)”. In assay [3], the Kd was determined as 0.26 nM.
With `CCO[C@@H]1C[C@H]2C(=O)NC3(CCC3)C(=O)N(C)[C@@H](C3CCCC3)C(=O)N(C)[C@H](C(=O)N(C)C)CC(=O)N(C)[C@@H](CC3CCCC3)C(=O)N[C@@H]([C@@H](C)CC)C(=O)N(C)CC(=O)N(C)[C@H]3C/C=C\CCN(C3=O)[C@@H](Cc3ccc(C)cc3)C(=O)N(C)CC(=O)N[C@@H](CCc3ccc(Cl)c(Cl)c3)C(=O)N2C1` [PP1487], in assay [1], the “HRAS/KRAS (ratio of KD value for HRAS to KD value for KRAS)” value was “A (a compound having 10 or more and less than 20 is denoted as A)”. In addition, the “NRAS/KRAS (ratio of KD value for NRAS to KD value for KRAS)” value in assay [2] is “A (a compound having 10 or more and less than 20 is denoted as A)”. Further, the Kd in assay [3] was found to be 0.34 nM.
Take `CCO[C@@H]1C[C@H]2C(=O)NC3(CCC3)C(=O)N(C)[C@@H](C3CCCC3)C(=O)N(C)[C@H](C(=O)N(C)C)CC(=O)N(C)[C@@H](CC(C)C)C(=O)N[C@@H]([C@@H](C)CC)C(=O)N(C)CC(=O)N(C)[C@H]3C/C=C\CCN(C3=O)[C@@H](Cc3ccc(F)cc3)C(=O)N(C)CC(=O)N[C@@H](CCc3cc(F)c(C(F)(F)F)c(F)c3)C(=O)N2C1` [PP1488, (2S,8S,12R,14S,20S,23S,27S,30S,36S,38Z)-20-cyclopentyl-8-[2-[3,5-difluoro-4-(trifluoromethyl)phenyl]ethyl]-12-ethoxy-2-[(4-fluorophenyl)methyl]-27-isobutyl-N,N,4,19,22,26,32,35-octamethyl-30-[(1S)-1-methylpropyl]-3,6,9,15,18,21,25,28,31,34,42-undecaoxo-spiro[1,4,7,10,16,19,22,26,29,32,35-undecazatricyclo[34.5.1.0^10,14]dotetracont-38-ene-17,1′-cyclobutane]-23-carboxamide]: in assay [1], the “HRAS/KRAS (ratio of KD value for HRAS to KD value for KRAS)” value was “B (a compound having 3 or more and less than 10 is denoted as B)”. Besides, the “NRAS/KRAS (ratio of KD value for NRAS to KD value for KRAS)” value in assay [2] is “A (a compound having 10 or more and less than 20 is denoted as A)”. Moreover, the Kd in assay [3] was 0.081 nM.
